In patent US20210045385A1, “PYRIDAZINONE-SUBSTITUTED KETOXIMES AS HERBICIDES” (FMC Corporation, priority 2018, published 2021):

Assays:
Format in all cases: in vivo
[1] = system: sedge umbrella (small-flower umbrella sedge, Cyperus difformis); assay: Test D flooded paddy test, visual plant response rating; conditions: 250 g ai/ha, scale 0 to 100 (0 no effect, 100 complete control), 13 to 15 d
How it was run: (§1)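 Greenhouse paddy assay scored on a 0–100 visual scale after 13 to 15 d, where 100 means complete control and a dash marks no result; dosing was into 3 cm floodwater over 2-leaf plants.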

[2] = system: duck salad (Heteranthera limosa); assay: as above; conditions: 250 g ai/ha, scale 0 to 100 (0 no effect, 100 complete control), 13 to 15 d
How it was run: as §1

[3] = system: barnyardgrass (Echinochloa crus-galli); assay: as above; conditions: 250 g ai/ha, scale 0 to 100 (0 no effect, 100 complete control), 13 to 15 d
How it was run: as §1

[4] = system: rice (Oryza sativa); assay: as above; conditions: 250 g ai/ha, scale 0 to 100 (0 no effect, 100 complete control), 13 to 15 d
How it was run: as §1

[5] = system: kochia (Bassia scoparia); assay: Test C postemergence, visual plant response rating
How it was run: (§2)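 Seeds sown in a loam–sand blend got a directed preemergence soil spray; postemergence plants (2–10 cm, one- to two-leaf stage) were sprayed with compound in a non-phytotoxic solvent plus surfactant. Injury was scored visually against untreated controls after about 10 d in a greenhouse on a 0–100 scale (100 = complete control).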

[6] = system: galium (catchweed bedstraw, Galium aparine); assay: Test C postemergence, visual plant response rating
How it was run: as §2

[7] = system: corn (Zea mays); assay: Test C postemergence, visual plant response rating
How it was run: as §2

[8] = system: barnyardgrass (Echinochloa crus-galli); assay: Test C postemergence, visual plant response rating
How it was run: as §2

[9] = system: ragweed (common ragweed, Ambrosia artemisiifolia); assay: Test C postemergence, visual plant response rating
How it was run: as §2

[10] = system: blackgrass (Alopecurus myosuroides); assay: Test C postemergence, visual plant response rating
How it was run: as §2

[11] = system: pigweed (Amaranthus retroflexus); assay: Test C postemergence, visual plant response rating
How it was run: as §2

[12] = system: Italian ryegrass (Lolium mutiflorum); assay: Test C postemergence, visual plant response rating
How it was run: as §2

[13] = system: wheat (Triticum aestivum); assay: Test C postemergence, visual plant response rating
How it was run: as §2

[14] = system: foxtail, giant (giant foxtail, Setaria faberi); assay: Test C postemergence, visual plant response rating
How it was run: as §2

[15] = system: kochia (Bassia scoparia); assay: Test C preemergence, visual plant response rating; conditions: Test C, 0 is no effect, 100 is complete control
How it was run: as §2

[16] = system: barnyardgrass (Echinochloa crus-galli); assay: Test C preemergence, visual plant response rating; conditions: Test C, 0 is no effect, 100 is complete control
How it was run: as §2

[17] = system: ragweed (common ragweed, Ambrosia artemisiifolia); assay: Test C preemergence, visual plant response rating; conditions: Test C, 0 is no effect, 100 is complete control
How it was run: as §2

[18] = system: pigweed (Amaranthus retroflexus); assay: Test C preemergence, visual plant response rating; conditions: Test C, 0 is no effect, 100 is complete control
How it was run: as §2

[19] = system: Italian ryegrass (Lolium mutiflorum); assay: Test C preemergence, visual plant response rating; conditions: Test C, 0 is no effect, 100 is complete control
How it was run: as §2

[20] = system: foxtail, giant (giant foxtail, Setaria faberi); assay: Test C preemergence, visual plant response rating; conditions: Test C, 0 is no effect, 100 is complete control
How it was run: as §2

[21] = Test C, postemergence, 125 g ai/ha

SMILES: CO/N=C(\c1c(O)cnn(C)c1=O)c1ccc(F)c2ccccc12 [Compound 303]
- Plant response rating, Sedge, Umbrella (Flood) [1]: 0
- Plant response rating, Ducksalad (Flood) [2]: 0
- Plant response rating, Barnyardgrass (Flood) [3]: 0
- Plant response rating, Rice (Flood) [4]: 0
- Kochia plant response rating (0 to 100 scale) ([5]; Postemergence, 31 g ai/ha): 40
- Kochia plant response rating (0 to 100 scale) [5, 21]: 50
- Galium plant response rating (0 to 100 scale) ([6]; Postemergence, 31 g ai/ha): 30
- Galium plant response rating (0 to 100 scale) [6, 21]: 70
- Corn plant response rating (0 to 100 scale) ([7]; Postemergence, 31 g ai/ha): 0
- Corn plant response rating (0 to 100 scale) [7, 21]: 0
- Barnyardgrass plant response rating (0 to 100 scale) ([8]; Postemergence, 31 g ai/ha): 0
- Barnyardgrass plant response rating (0 to 100 scale) [8, 21]: 10
- Ragweed plant response rating (0 to 100 scale) ([9]; Postemergence, 31 g ai/ha): 10
- Ragweed plant response rating (0 to 100 scale) [9, 21]: 20
- Blackgrass plant response rating (0 to 100 scale) ([10]; Postemergence, 31 g ai/ha): 0
- Blackgrass plant response rating (0 to 100 scale) [10, 21]: 0
- Pigweed plant response rating (0 to 100 scale) ([11]; Postemergence, 31 g ai/ha): 40
- Pigweed plant response rating (0 to 100 scale) [11, 21]: 60
- Ryegrass, Italian plant response rating (0 to 100 scale) ([12]; Postemergence, 31 g ai/ha): 20
- Ryegrass, Italian plant response rating (0 to 100 scale) [12, 21]: 40
- Wheat plant response rating (0 to 100 scale) ([13]; Postemergence, 31 g ai/ha): 0
- Wheat plant response rating (0 to 100 scale) [13, 21]: 0
- Foxtail, Giant plant response rating (0 to 100 scale) ([14]; Postemergence, 31 g ai/ha): 0
- Foxtail, Giant plant response rating (0 to 100 scale) [14, 21]: 20
- Kochia plant response rating (0 to 100 scale) ([15]; 31 g ai/ha): 0
- Kochia plant response rating (0 to 100 scale) ([15]; 125 g ai/ha): 10
- Barnyardgrass plant response rating (0 to 100 scale) ([16]; 31 g ai/ha): 0
- Barnyardgrass plant response rating (0 to 100 scale) ([16]; 125 g ai/ha): 0
- Ragweed plant response rating (0 to 100 scale) ([17]; 31 g ai/ha): 0
- Ragweed plant response rating (0 to 100 scale) ([17]; 125 g ai/ha): 20
- Pigweed plant response rating (0 to 100 scale) ([18]; 31 g ai/ha): 10
- Pigweed plant response rating (0 to 100 scale) ([18]; 125 g ai/ha): 30
- Ryegrass, Italian plant response rating (0 to 100 scale) ([19]; 31 g ai/ha): 0
- Ryegrass, Italian plant response rating (0 to 100 scale) ([19]; 125 g ai/ha): 20
- Foxtail, Giant plant response rating (0 to 100 scale) ([20]; 31 g ai/ha): 0
- Foxtail, Giant plant response rating (0 to 100 scale) ([20]; 125 g ai/ha): 10
